Active and inactive are the calls of the source.
Experiments:
Hexokinase HKDC1 = target: T1, Hexokinase HKDC1 (Homo sapiens, UniProt Q2TB90); assay: inhibition of HKDC1 glucose phosphorylation – biochemical, W721R variant, dose response (AID 504729); format: functional
T1 sequence (Q2TB90 whole entry): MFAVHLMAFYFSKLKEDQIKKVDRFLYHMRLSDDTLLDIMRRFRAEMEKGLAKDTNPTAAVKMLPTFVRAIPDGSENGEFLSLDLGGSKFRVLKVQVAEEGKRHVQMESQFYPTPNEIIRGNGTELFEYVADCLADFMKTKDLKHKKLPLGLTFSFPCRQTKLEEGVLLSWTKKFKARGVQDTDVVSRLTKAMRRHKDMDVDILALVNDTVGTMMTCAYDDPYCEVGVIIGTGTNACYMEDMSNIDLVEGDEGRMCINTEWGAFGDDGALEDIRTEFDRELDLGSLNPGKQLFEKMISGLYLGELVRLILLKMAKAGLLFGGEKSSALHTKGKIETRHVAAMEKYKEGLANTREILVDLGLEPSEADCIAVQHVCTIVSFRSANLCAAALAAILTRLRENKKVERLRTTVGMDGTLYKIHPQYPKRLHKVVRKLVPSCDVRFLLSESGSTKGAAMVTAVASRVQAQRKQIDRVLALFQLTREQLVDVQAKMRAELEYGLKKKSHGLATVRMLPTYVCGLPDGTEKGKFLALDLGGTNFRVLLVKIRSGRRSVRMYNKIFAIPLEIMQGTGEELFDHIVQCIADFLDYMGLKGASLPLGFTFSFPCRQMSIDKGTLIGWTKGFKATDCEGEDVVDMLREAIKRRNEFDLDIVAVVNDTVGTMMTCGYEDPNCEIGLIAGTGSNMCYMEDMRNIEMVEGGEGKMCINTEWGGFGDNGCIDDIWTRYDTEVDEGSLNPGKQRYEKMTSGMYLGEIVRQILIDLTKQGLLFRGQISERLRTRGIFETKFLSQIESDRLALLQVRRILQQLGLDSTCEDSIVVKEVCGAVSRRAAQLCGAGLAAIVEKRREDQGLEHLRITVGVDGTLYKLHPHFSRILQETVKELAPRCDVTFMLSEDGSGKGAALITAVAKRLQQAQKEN

[1] = target: T2, Adenosylmethionine-8-amino-7-oxononanoate aminotransferase (Mycobacterium tuberculosis, UniProt P9WQ81); assay: Mycobacterium tuberculosis BioA enzyme inhibitor Measured in Biochemical System Using Plate Reader - 2163-02_Inhibitor_Dose_CherryPick_Activity.; format: functional, Mycobacterium tuberculosis UT205
T2 sequence (P9WQ81 whole entry): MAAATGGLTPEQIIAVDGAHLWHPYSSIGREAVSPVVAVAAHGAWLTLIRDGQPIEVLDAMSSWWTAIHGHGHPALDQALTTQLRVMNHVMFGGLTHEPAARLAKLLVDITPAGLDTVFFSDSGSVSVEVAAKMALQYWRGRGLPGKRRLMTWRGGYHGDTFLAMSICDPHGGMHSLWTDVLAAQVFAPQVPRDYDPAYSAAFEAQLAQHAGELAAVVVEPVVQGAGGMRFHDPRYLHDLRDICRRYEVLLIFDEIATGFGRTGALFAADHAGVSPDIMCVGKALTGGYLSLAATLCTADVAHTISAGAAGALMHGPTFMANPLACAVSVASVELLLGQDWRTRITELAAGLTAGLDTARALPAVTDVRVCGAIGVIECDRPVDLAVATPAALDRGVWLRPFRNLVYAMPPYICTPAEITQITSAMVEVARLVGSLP

Aspartyl aminopeptidase = Aspartyl aminopeptidase (Plasmodium falciparum 3D7, UniProt Q8I2J3)
Procathepsin L = Procathepsin L (Homo sapiens, UniProt P07711)
Vasopressin V1a receptor = Vasopressin V1a receptor (Homo sapiens, UniProt P37288); assay: Counterscreen for Oxytocin Receptor (OXTR) agonists: Fluorescence-based cell-based high throughput dose response assay to identify agonists of the vasopressin 1 receptor (V1R). [Related pubchem assays: 2435 (Primary screen (OXTR agonists in singlicate)), 434991 (Counterscreen (V1R agonists in triplicate)), 2482 (Summary (OXTR agonists)) …; format: functional
Oxytocin receptor = Oxytocin receptor (Homo sapiens, UniProt P30559); assay: Fluorescence-based cell-based high throughput dose response assay for agonists of the Oxytocin Receptor (OXTR). [Related pubchem assays: 2435 (Primary screen (OXTR agonists in singlicate)), 434991 (Counterscreen (V1R agonists in triplicate)), 2482 (Summary (OXTR agonists)), 434963 (Confirmation screen (OXTR agonists in triplicate))]; format: functional
[2] = target: Glyceraldehyde-3-phosphate dehydrogenase (Homo sapiens, UniProt P04406)
[3] = target: T3, Tyrosine-protein phosphatase non-receptor type 7 (Homo sapiens, UniProt P35236); format: functional
T3 sequence (P35236 whole entry): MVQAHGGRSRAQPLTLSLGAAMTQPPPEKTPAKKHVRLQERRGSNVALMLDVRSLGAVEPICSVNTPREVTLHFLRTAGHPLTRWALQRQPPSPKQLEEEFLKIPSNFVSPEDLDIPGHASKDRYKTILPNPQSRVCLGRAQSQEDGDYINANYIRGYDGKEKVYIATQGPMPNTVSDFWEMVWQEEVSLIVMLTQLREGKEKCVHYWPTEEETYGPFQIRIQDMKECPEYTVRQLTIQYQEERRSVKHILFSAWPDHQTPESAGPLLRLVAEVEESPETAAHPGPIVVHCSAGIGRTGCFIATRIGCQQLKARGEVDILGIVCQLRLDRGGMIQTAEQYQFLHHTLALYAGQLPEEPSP

[4] = target: T3, Tyrosine-protein phosphatase non-receptor type 7; assay: redox-active compounds inhibiting HePTP phosphatase – biochemical, fluorescence, mechanism study (AID 2068); format: functional
[5] = target: T4, Dual specificity protein phosphatase 6 (Rattus norvegicus, UniProt Q64346)
T4 sequence (Q64346 whole entry): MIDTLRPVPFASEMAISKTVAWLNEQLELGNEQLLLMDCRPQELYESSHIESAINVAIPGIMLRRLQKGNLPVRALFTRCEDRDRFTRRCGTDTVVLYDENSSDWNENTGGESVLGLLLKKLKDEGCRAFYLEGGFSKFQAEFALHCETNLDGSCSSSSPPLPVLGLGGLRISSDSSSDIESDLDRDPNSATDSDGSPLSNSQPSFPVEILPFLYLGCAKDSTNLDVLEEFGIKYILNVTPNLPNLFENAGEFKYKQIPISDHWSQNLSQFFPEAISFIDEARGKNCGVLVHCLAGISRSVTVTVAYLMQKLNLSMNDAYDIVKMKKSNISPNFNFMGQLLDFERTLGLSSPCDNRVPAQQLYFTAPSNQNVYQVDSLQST

[6] = target: T4, Dual specificity protein phosphatase 6; format: functional
[7] = target: T5, Dual specificity protein phosphatase 3 (Homo sapiens, UniProt P51452); assay: MOA VHR1 Fluorescent secondary assay for identification of redox-state modulating compounds. [Related pubchem assays (depositor defined):AID1654, AID1661, AID1878, AID1957]
[8] = target: T5, Dual specificity protein phosphatase 3; assay: SAR VHR1 Fluorescent Assay for In Vitro dose response studies. [Related pubchem assays (depositor defined):AID1654, AID1661, AID1878, AID1992, AID2004, AID2070, AID2085]; format: functional

T5 sequence (P51452 whole entry): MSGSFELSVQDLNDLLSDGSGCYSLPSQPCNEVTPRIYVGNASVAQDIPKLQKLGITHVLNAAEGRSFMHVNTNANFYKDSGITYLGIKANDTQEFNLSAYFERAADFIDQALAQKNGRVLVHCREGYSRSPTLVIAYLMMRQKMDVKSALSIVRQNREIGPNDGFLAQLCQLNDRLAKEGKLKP
Chain of Glyceraldehyde-3-phosphate dehydrogenase (P04406 whole entry): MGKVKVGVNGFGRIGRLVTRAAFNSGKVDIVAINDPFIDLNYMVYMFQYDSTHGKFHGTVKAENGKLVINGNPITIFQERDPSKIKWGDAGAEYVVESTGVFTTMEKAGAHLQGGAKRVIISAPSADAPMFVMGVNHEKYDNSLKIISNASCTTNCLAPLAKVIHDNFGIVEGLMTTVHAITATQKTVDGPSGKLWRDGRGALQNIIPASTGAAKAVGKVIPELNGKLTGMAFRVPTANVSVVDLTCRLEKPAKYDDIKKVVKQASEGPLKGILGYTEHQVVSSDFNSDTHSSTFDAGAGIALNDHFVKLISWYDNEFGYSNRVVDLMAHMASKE
Chain of Oxytocin receptor (P30559 whole entry): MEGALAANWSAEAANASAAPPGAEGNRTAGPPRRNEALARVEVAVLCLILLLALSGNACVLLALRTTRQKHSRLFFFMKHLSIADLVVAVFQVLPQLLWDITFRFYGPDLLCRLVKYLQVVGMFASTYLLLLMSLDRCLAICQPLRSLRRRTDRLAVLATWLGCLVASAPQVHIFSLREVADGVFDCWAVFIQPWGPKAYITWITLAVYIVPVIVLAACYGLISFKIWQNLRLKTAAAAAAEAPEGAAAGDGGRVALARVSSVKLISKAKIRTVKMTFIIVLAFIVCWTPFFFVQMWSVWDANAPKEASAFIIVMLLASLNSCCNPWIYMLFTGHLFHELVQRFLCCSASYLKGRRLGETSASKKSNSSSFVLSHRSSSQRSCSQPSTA
Chain of Procathepsin L (P07711 whole entry): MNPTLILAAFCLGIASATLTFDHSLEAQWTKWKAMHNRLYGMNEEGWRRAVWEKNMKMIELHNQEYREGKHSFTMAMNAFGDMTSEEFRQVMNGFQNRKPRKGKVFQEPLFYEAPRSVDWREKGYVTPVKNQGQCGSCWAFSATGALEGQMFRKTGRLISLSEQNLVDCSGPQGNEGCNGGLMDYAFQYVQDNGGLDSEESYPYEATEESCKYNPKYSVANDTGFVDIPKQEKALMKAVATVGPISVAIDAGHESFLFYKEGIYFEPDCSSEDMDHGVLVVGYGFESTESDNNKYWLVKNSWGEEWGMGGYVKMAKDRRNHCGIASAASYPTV
Chain of Aspartyl aminopeptidase (Q8I2J3 whole entry): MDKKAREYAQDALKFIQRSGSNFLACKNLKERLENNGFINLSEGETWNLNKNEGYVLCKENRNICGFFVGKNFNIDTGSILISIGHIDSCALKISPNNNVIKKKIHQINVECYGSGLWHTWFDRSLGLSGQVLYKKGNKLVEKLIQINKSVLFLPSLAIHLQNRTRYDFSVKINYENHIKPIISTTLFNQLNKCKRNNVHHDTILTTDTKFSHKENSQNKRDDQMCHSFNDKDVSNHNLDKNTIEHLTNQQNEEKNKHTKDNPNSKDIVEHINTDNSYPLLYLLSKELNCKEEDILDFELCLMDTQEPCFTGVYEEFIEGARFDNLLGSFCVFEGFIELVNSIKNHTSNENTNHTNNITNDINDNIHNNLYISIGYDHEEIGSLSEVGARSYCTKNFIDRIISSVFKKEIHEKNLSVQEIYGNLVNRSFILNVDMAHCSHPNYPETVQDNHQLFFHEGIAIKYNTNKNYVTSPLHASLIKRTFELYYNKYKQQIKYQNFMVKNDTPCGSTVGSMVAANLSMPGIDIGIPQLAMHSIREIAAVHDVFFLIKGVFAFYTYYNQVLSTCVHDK
Chain of Vasopressin V1a receptor (P37288 whole entry): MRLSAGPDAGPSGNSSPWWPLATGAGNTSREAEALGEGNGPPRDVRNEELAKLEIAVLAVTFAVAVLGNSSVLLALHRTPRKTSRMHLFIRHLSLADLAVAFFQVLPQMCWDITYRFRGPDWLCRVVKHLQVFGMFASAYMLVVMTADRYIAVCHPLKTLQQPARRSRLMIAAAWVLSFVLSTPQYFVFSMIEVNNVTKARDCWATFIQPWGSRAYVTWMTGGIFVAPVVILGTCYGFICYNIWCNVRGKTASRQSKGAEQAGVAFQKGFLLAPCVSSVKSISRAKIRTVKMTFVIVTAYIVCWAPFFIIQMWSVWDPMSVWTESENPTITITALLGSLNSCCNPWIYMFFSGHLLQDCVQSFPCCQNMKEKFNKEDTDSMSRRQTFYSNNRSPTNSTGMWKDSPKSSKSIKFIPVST

## O=C(CSc1nnc(-c2cccnc2)[nH]1)Nc1ccnc2ccccc12
Hexokinase HKDC1
  IC50: 13.1 µM (active)
[1]
  AC50: 6.07 µM (active)

## O=C(Nc1cccc([N+](=O)[O-])c1)Nn1cnnc1
Aspartyl aminopeptidase
  IC50: 0.93 µM (active)
Procathepsin L
  IC50: > 59.6 µM (not active)

## Cc1cc(-c2nnc(SCC(=O)Nc3ccccc3C(F)(F)F)o2)c(C)n1-c1ccccc1
Vasopressin V1a receptor
  EC50: > 29.9 µM (not active)
Oxytocin receptor
  EC50: > 29.9 µM (not active)

## O=c1/c(=C/c2ccco2)sc2nc3cc(Br)cnc3n12
[2]
  IC50: 27.8 µM (active)
[3]
  IC50: 0.543 µM (active)
[4]
  IC50: 0.127 µM (active)
[5]
  IC50: 4.4 µM (active)
[6]
  IC50: 6.58 µM (active)
[7]
  IC50: 0.345 µM (active)
[8]
  IC50: 1.23 µM (active)

From ChEMBL document CHEMBL1201862, “PubChem BioAssay data set” (2004)
